Nine molecules from ChEMBL document CHEMBL3596103, “Synthesis of novel amide functionalized 2H-chromene derivatives by Ritter amidation of primary alcohol using HBF4·OEt2 as a mild and versatile reagent and evaluation of their antimicrobial and anti-biofilm activities” (Bioorg Med Chem Lett, 2015) can be followed below.

In brackets after ≈: the same amount, converted by molar mass. Activity calls are given as the source filed them.

Test [1] concerns Staphylococcus aureus. The test can be described thus: Bactericidal activity against Staphylococcus aureus MLS16 MTCC 2940 incubated for 24 hrs at 37 degC. To be noted: MLS16 MTCC 2940, 24 h. Format: functional.
Test [2] concerns Escherichia coli. The experiment in a line: Bactericidal activity against Escherichia coli MTCC 739 incubated for 24 hrs at 37 degC. The following applies: MTCC 739, 24 h. It counts as functional.
Test [3] relates to Micrococcus luteus. The experiment in a line: Inhibition of bio-film formation of Micrococcus luteus MTCC 2470 incubated for 24 hrs at 37 degC under static conditions by crystal violet staining method. It counts as functional, organism-based. The following applies: MTCC 2470, 24 h.
Test [4] concerns Staphylococcus aureus. The experiment in a line: Inhibition of bio-film formation of Staphylococcus aureus MLS16 MTCC 2940 incubated for 24 hrs at 37 degC under static conditions by crystal violet staining method. Format: functional, organism-based. The following applies: MLS16 MTCC 2940, 24 h.
Test [5] relates to Micrococcus luteus. The test can be described thus: Antimicrobial activity against Micrococcus luteus MTCC 2470 incubated for 24 hrs at 37 degC by well diffusion method. It counts as functional. The following applies: MTCC 2470, 24 h. Background: Agar diffusion results depend on both activity and mobility in agar.
The next test has as its system Candida albicans. The test can be described thus: Antimicrobial activity against Candida albicans MTCC 3017 incubated for 24 hrs at 30 degC by well diffusion method. Format: functional. The following applies: MTCC 3017, 24 h.
Test [6] has as its system Raoultella planticola. The test can be described thus: Antimicrobial activity against Klebsiella planticola MTCC 530 incubated for 24 hrs at 37 degC by well diffusion method. It counts as functional. To be noted: MTCC 530, 24 h.
For test [7], the system named is Staphylococcus aureus. The test can be described thus: Antimicrobial activity against Staphylococcus aureus MLS16 MTCC 2940 incubated for 24 hrs at 37 degC by well diffusion method. It counts as functional. The following applies: MLS16 MTCC 2940, 24 h.
Test [8] has as its system Bacillus subtilis. The test can be described thus: Bactericidal activity against Bacillus subtilis MTCC 121 incubated for 24 hrs at 37 degC. To be noted: MTCC 121, 24 h. It counts as functional.
Test [9] relates to Escherichia coli. The test can be described thus: Inhibition of bio-film formation of Escherichia coli MTCC 739 incubated for 24 hrs at 37 degC under static conditions by crystal violet staining method. Format: functional, organism-based. To be noted: MTCC 739, 24 h.
The test system of test [10] is Escherichia coli. The experiment in a line: Antimicrobial activity against Escherichia coli MTCC 739 incubated for 24 hrs at 37 degC by well diffusion method. It counts as functional. To be noted: MTCC 739, 24 h.
The test system of test [11] is Bacillus subtilis. The test can be described thus: Antimicrobial activity against Bacillus subtilis MTCC 121 incubated for 24 hrs at 37 degC by well diffusion method. It counts as functional. To be noted: MTCC 121, 24 h.
In test [12] the test system is Bacillus subtilis. The test can be described thus: Inhibition of bio-film formation of Bacillus subtilis MTCC 121 incubated for 24 hrs at 37 degC under static conditions by crystal violet staining method. It counts as functional, organism-based. The following applies: MTCC 121, 24 h.
Test [13] has as its system Raoultella planticola. The experiment in a line: Bactericidal activity against Klebsiella planticola MTCC 530 incubated for 24 hrs at 37 degC. The following applies: MTCC 530, 24 h. Format: functional.
The test system of test [14] is Micrococcus luteus. The test can be described thus: Bactericidal activity against Micrococcus luteus MTCC 2470 incubated for 24 hrs at 37 degC. Format: functional. The following applies: MTCC 2470, 24 h.
In the next test the test system is Pseudomonas aeruginosa. The test can be described thus: Antimicrobial activity against Pseudomonas aeruginosa MTCC 2453 incubated for 24 hrs at 37 degC by well diffusion method. It counts as functional. The following applies: MTCC 2453, 24 h.
The subject of test [15] is Raoultella planticola. The experiment in a line: Inhibition of bio-film formation of Klebsiella planticola MTCC 530 incubated for 24 hrs at 37 degC under static conditions by crystal violet staining method. It counts as functional, organism-based. The following applies: MTCC 530, 24 h.
Test [16] deals with Staphylococcus aureus. The experiment in a line: Induction of intracellular ROS accumulation in Staphylococcus aureus MLS16 MTCC 2940 sessile biofilm cells at 0.5 to 2 um incubated for 24 hrs at 35 degC by DCFH-DA dye based fluorescence assay. It counts as functional, organism-based.

By MBC is commonly meant the smallest concentration meeting the test's criterion for killing. Low values mean more potent killing, high ones less potent killing. A word on the IC50: it is the midpoint of a concentration-inhibition curve. Higher therefore signals weaker potency in that assay. What is called MIC is the lowest concentration found to suppress growth. A low value points to a more susceptible organism. `O=C(Cc1cccc(Cl)c1)NCC1=Cc2cc(Br)ccc2OC1(O)C(F)(F)F` (configuration not stated): the MBC in the test with Staphylococcus aureus [1] stood at 37.1 µM (≈ 17.7 µg/mL); against Escherichia coli [2] it was 37.1 µM (≈ 17.7 µg/mL); in the test with Bacillus subtilis [8] it was 74.2 µM (≈ 35.4 µg/mL); against Raoultella planticola [13], 74.2 µM (≈ 35.4 µg/mL); in the test on Micrococcus luteus [14], 74.2 µM (≈ 35.4 µg/mL). Also, the 50% inhibitory concentration (IC50) in the test with Micrococcus luteus [3] came to 18.4 µM; with Staphylococcus aureus [4], 9.2 µM; in the test with Escherichia coli [9], 8.2 µM; in the test on Bacillus subtilis [12], 22.2 µM; in the test on Raoultella planticola [15], 24.6 µM. The MIC is 31.2 µM against Micrococcus luteus [5]; above 125 µg/mL against Candida albicans; 31.2 µM with Raoultella planticola [6]; 15.6 µM against Staphylococcus aureus [7]; 15.6 µM in the test on Escherichia coli [10]; 31.2 µM in the test with Bacillus subtilis [11]. The minimal inhibitory concentration (MIC) against Pseudomonas aeruginosa was above 125 µg/mL.
In the case of `CC(=O)NCC1=Cc2ccccc2OC1(O)C(F)(F)F` (configuration not stated), the MIC in the test with Micrococcus luteus [5], against Candida albicans, in the test on Raoultella planticola [6], in the test on Staphylococcus aureus [7], against Escherichia coli [10] and in the test with Bacillus subtilis [11] was above 125 µg/mL throughout. The same molecule registered a minimum inhibitory concentration (MIC) against Pseudomonas aeruginosa above 125 µg/mL.
Take `O=C(CBr)NCC1=Cc2cc(Br)ccc2OC1(O)C(F)(F)F` (configuration not stated): the minimal bactericidal concentration (MBC) in the test on Staphylococcus aureus [1] worked out at 4 µM (≈ 1.78 µg/mL); against Escherichia coli [2], 16.6 µM (≈ 7.39 µg/mL); with Bacillus subtilis [8] it was 4 µM (≈ 1.78 µg/mL); with Raoultella planticola [13] it was 8.3 µM (≈ 3.69 µg/mL); in the test with Micrococcus luteus [14], 8.3 µM (≈ 3.69 µg/mL). Besides, the IC50 in the test on Micrococcus luteus [3] is 1.7 µM; in the test on Staphylococcus aureus [4], 1.2 µM; in the test with Escherichia coli [9], 1.4 µM; in the test on Bacillus subtilis [12], 1.4 µM; in the test on Raoultella planticola [15] it was 1.7 µM. For the same molecule, the minimal inhibitory concentration (MIC) with Micrococcus luteus [5] is 8.3 µM; in the test on Candida albicans it was above 125 µg/mL; against Raoultella planticola [6] it was 4 µM; with Staphylococcus aureus [7] it was 4 µM; with Escherichia coli [10] it was 8.3 µM; with Bacillus subtilis [11], 4 µM. This molecule registered an MIC against Pseudomonas aeruginosa above 125 µg/mL. Also, the outcome in the test with Staphylococcus aureus [16] was Active.
For the molecule `O=C(CCBr)NCC1=Cc2cccc(F)c2OC1(O)C(F)(F)F` (configuration not stated), the MIC in the test with Candida albicans and with Staphylococcus aureus [7] was above 125 µg/mL each time.
Take `O=C(Cc1ccc(Br)cc1)NCC1=Cc2cc(Br)ccc2OC1(O)C(F)(F)F` (configuration not stated): the minimal bactericidal concentration (MBC) with Staphylococcus aureus [1] turned out to be 14.3 µM (≈ 7.45 µg/mL); against Escherichia coli [2], 14.3 µM (≈ 7.45 µg/mL); in the test with Bacillus subtilis [8], 28.6 µM (≈ 14.9 µg/mL); in the test with Raoultella planticola [13] it was 57.3 µM (≈ 29.9 µg/mL); against Micrococcus luteus [14], 28.6 µM (≈ 14.9 µg/mL). The IC50 in the test with Micrococcus luteus [3] is 7.7 µM; in the test on Staphylococcus aureus [4], 6.2 µM; in the test on Escherichia coli [9], 5.8 µM; in the test with Bacillus subtilis [12], 8.8 µM; with Raoultella planticola [15], 14.8 µM. Further, the MIC in the test with Micrococcus luteus [5] is 28.6 µM; against Candida albicans it was above 125 µg/mL; against Raoultella planticola [6], 14.3 µM; with Staphylococcus aureus [7] it was 14.3 µM; in the test on Escherichia coli [10], 14.3 µM; in the test on Bacillus subtilis [11], 14.3 µM. The MIC in the test on Pseudomonas aeruginosa is above 125 µg/mL.
As to `O=C(Cc1cccc(Cl)c1)NCC1=Cc2ccccc2OC1(O)C(F)(F)F` (configuration not stated), the MBC is 37.1 µM (≈ 14.8 µg/mL) against Staphylococcus aureus [1]; above 230 µM against Escherichia coli [2]; 74.2 µM (≈ 29.5 µg/mL) with Bacillus subtilis [8]; above 230 µM in the test on Raoultella planticola [13]; 74.2 µM (≈ 29.5 µg/mL) in the test with Micrococcus luteus [14]. Further, the figures for the IC50 in the test with Micrococcus luteus [3], in the test with Staphylococcus aureus [4] and with Bacillus subtilis [12] were 17.1 µM, 19.7 µM and 43.8 µM, respectively. In addition, the MIC in the test with Micrococcus luteus [5] was above 125 µg/mL; in the test on Candida albicans, above 125 µg/mL; with Raoultella planticola [6] it was 37.1 µM; in the test with Staphylococcus aureus [7], 37.1 µM; in the test on Escherichia coli [10], above 125 µg/mL; in the test with Bacillus subtilis [11], 74.2 µM. The molecule further showed a minimal inhibitory concentration (MIC) against Pseudomonas aeruginosa above 125 µg/mL.
Take `O=C(O)c1cn(C2CC2)c2cc(N3CCNCC3)c(F)cc2c1=O` [CIPROFLOXACIN]: the minimum bactericidal concentration (MBC) in the test on Staphylococcus aureus [1] is 2.7 µM (≈ 0.895 µg/mL); against Escherichia coli [2], 5.7 µM (≈ 1.89 µg/mL); against Bacillus subtilis [8] it was 5.7 µM (≈ 1.89 µg/mL); in the test with Raoultella planticola [13], 2.7 µM (≈ 0.895 µg/mL); in the test with Micrococcus luteus [14] it was 5.7 µM (≈ 1.89 µg/mL). Further, the minimum inhibitory concentration (MIC) in the test with Micrococcus luteus [5] was 2.7 µM; against Candida albicans, above 125 µg/mL; in the test with Raoultella planticola [6] it was 2.7 µM; against Staphylococcus aureus [7], 2.7 µM; in the test with Escherichia coli [10] it was 2.7 µM; against Bacillus subtilis [11], 2.7 µM. This molecule also displayed a minimal inhibitory concentration (MIC) in the test with Pseudomonas aeruginosa of 2.7 µM.
On to `O=C(CBr)NCC1=Cc2ccccc2OC1(O)C(F)(F)F` (configuration not stated), for which the MBC was found to be 19.1 µM (≈ 6.99 µg/mL) with Staphylococcus aureus [1]; 38.3 µM (≈ 14 µg/mL) against Escherichia coli [2]; 19.1 µM (≈ 6.99 µg/mL) with Bacillus subtilis [8]; 19.1 µM (≈ 6.99 µg/mL) against Raoultella planticola [13]; 38.3 µM (≈ 14 µg/mL) in the test with Micrococcus luteus [14]. In addition, the half-inhibitory concentration (IC50) worked out at 8.3 µM in the test with Micrococcus luteus [3]; 3.6 µM in the test with Staphylococcus aureus [4]; 10.5 µM in the test with Escherichia coli [9]; 5.1 µM with Bacillus subtilis [12]; 12.7 µM in the test on Raoultella planticola [15]. The MIC was 19.1 µM in the test with Micrococcus luteus [5]; above 125 µg/mL in the test with Candida albicans; 19.1 µM against Raoultella planticola [6]; 9.5 µM in the test with Staphylococcus aureus [7]; 19.1 µM in the test with Escherichia coli [10]; 9.5 µM against Bacillus subtilis [11]. Besides, in the test with Pseudomonas aeruginosa, the MIC is above 125 µg/mL.
With `O=C(CCCCBr)NCC1=Cc2cc(Br)ccc2OC1(O)C(F)(F)F` (configuration not stated), the minimal inhibitory concentration (MIC) in the test with Micrococcus luteus [5], against Candida albicans, against Raoultella planticola [6], in the test on Staphylococcus aureus [7], in the test on Escherichia coli [10] and with Bacillus subtilis [11] was above 125 µg/mL in each case. Besides, in the test on Pseudomonas aeruginosa, the MIC was above 125 µg/mL.
